The record followed here is PubChem BioAssay (NCI).

Molecules are shown by their SMILES.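 Results reflect a 48-hour exposure of cells in 96-well plates to compound at five concentrations. The concentration for 50% growth inhibition is given as GI50. TGI marks complete inhibition of growth.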 Some results are limits rather than exact numbers.

Among the test systems are NCI-H226 lung; CAKI-1 renal; MOLT-4 leukemia; PC-3 prostate; HL-60(TB) leukemia; SR leukemia; MDA-MB-231 breast; NCI-H522 lung; HCT-116 colon; SK-MEL-2 melanoma.
Holding throughout (experiment): NCI anticancer screen, dose series, 48 h

As for `COC(=O)CCCCC(=O)c1c(C)[nH]c(/C=C2\N=C(c3ccc[nH]3)C=C2OC)c1C`, the GI50 with NCI-H226 lung is 1.17 µM; in the experiment with CAKI-1 renal it was 1.03 µM; in the experiment on MOLT-4 leukemia, 0.103 µM; in the experiment with PC-3 prostate it was 0.47 µM; in the experiment with HL-60(TB) leukemia, 0.273 µM; in the experiment with SR leukemia, 0.029 µM. Also, the GI50 in the experiment with MDA-MB-231 breast is 0.269 µM; with NCI-H522 lung, 0.673 µM; with HCT-116 colon, 0.109 µM; with SK-MEL-2 melanoma, 0.456 µM. Further, the TGI was found to be 2.87 µM in the experiment on NCI-H226 lung; 2.49 µM with CAKI-1 renal; 1.74 µM in the experiment with MOLT-4 leukemia; 1.88 µM with PC-3 prostate; 1.03 µM in the experiment on HL-60(TB) leukemia; 0.313 µM with SR leukemia. The figures for the TGI in the experiment with MDA-MB-231 breast, in the experiment with NCI-H522 lung and with SK-MEL-2 melanoma were 1.65 µM, 2.19 µM and 1.83 µM, respectively.

`OC(C#Cc1ccccc1)(c1ccccc1)c1ccccc1`: the TGI in the experiment with NCI-H226 lung is 87.3 µM; in the experiment with CAKI-1 renal it was 61.8 µM; in the experiment with MOLT-4 leukemia, greater than 100 µM; in the experiment with PC-3 prostate, greater than 100 µM; with HL-60(TB) leukemia it was greater than 100 µM; in the experiment on SR leukemia, greater than 100 µM. Besides, the TGI with MDA-MB-231 breast is greater than 100 µM; in the experiment with NCI-H522 lung, greater than 100 µM; in the experiment on HCT-116 colon, greater than 100 µM; in the experiment with SK-MEL-2 melanoma it was 55.4 µM.

For the compound `Oc1cccc2ccc(N/N=C/c3cc(CN4CCOCC4)c(O)c4ncccc34)nc12`, the GI50 was 0.533 µM in the experiment with NCI-H226 lung; 0.0506 µM with CAKI-1 renal; 0.053 µM with MOLT-4 leukemia; 0.0346 µM with PC-3 prostate; 0.0298 µM in the experiment with HL-60(TB) leukemia; 0.0332 µM in the experiment on SR leukemia. In addition, the GI50 in the experiment on MDA-MB-231 breast was 0.0441 µM; in the experiment with NCI-H522 lung it was less than 0.0165 µM; in the experiment with HCT-116 colon, 0.0223 µM; with SK-MEL-2 melanoma, less than 0.0181 µM. Also, the TGI is 5.57 µM with NCI-H226 lung; 1.59 µM with CAKI-1 renal; 5.62 µM in the experiment with MOLT-4 leukemia; 4.92 µM in the experiment on PC-3 prostate; 1.49 µM in the experiment with HL-60(TB) leukemia; 4.38 µM in the experiment on SR leukemia. Besides, the TGI in the experiment on MDA-MB-231 breast was 2.25 µM; with NCI-H522 lung it was 1.48 µM; in the experiment on HCT-116 colon it was 2.77 µM; in the experiment on SK-MEL-2 melanoma, 0.26 µM.

`COC1=C(OC)C(=O)C(SC/C=C(\C)CCCC(C)CCCC(C)CCCC(C)C)=CC1=O` (centres undefined): the GI50 is 2.75 µM with NCI-H226 lung; 6.64 µM in the experiment on CAKI-1 renal; 1.41 µM in the experiment with MOLT-4 leukemia; 0.255 µM in the experiment with PC-3 prostate; 0.359 µM with HL-60(TB) leukemia; 1.09 µM in the experiment with SR leukemia. The GI50 with MDA-MB-231 breast is 1.92 µM; with NCI-H522 lung it was 0.635 µM; in the experiment with HCT-116 colon it was 0.574 µM; with SK-MEL-2 melanoma, 0.802 µM. Besides, the TGI in the experiment with NCI-H226 lung was greater than 100 µM; in the experiment with CAKI-1 renal, greater than 37 µM; in the experiment on MOLT-4 leukemia it was greater than 100 µM; in the experiment with PC-3 prostate, greater than 100 µM; in the experiment with HL-60(TB) leukemia it was 3.41 µM; in the experiment with SR leukemia, greater than 100 µM. In addition, the TGI with MDA-MB-231 breast was 8.78 µM; in the experiment on NCI-H522 lung, greater than 38.1 µM; in the experiment on HCT-116 colon it was greater than 39.7 µM; in the experiment with SK-MEL-2 melanoma it was 4.24 µM.

In the case of `Cc1cccc2c3c(sc12)C(c1ccc(Cl)cc1)C(C#N)=C(N)O3` (centres undefined), the GI50 in the experiment with NCI-H226 lung was 0.763 µM; in the experiment with CAKI-1 renal it was 0.295 µM; in the experiment with MOLT-4 leukemia, 0.497 µM; in the experiment on PC-3 prostate it was 0.395 µM; in the experiment with HL-60(TB) leukemia it was 0.3 µM; with SR leukemia, 0.452 µM. Further, the GI50 in the experiment on MDA-MB-231 breast is 0.679 µM; with NCI-H522 lung, 0.314 µM; in the experiment on HCT-116 colon, 0.389 µM; in the experiment with SK-MEL-2 melanoma, 1.41 µM. For the same compound, the TGI in the experiment on NCI-H226 lung is 7.46 µM; with CAKI-1 renal it was 14.5 µM; in the experiment with MOLT-4 leukemia, 13.7 µM; in the experiment on PC-3 prostate, 12.8 µM; in the experiment on HL-60(TB) leukemia, 1.21 µM; in the experiment on SR leukemia, greater than 33.9 µM. Besides, the TGI in the experiment with MDA-MB-231 breast amounted to 7.74 µM; in the experiment on NCI-H522 lung, 4.95 µM; with HCT-116 colon, 4.95 µM; in the experiment on SK-MEL-2 melanoma, 21 µM.

With `OCCNC1c2cc(Cl)ccc2-c2c(Cl)cc(Cl)cc21` (centres undefined), the TGI in the experiment on NCI-H226 lung is greater than 100 µM; in the experiment on CAKI-1 renal, greater than 100 µM; with MOLT-4 leukemia, 47.6 µM; with PC-3 prostate it was 77.3 µM; with HL-60(TB) leukemia, 51.4 µM; in the experiment on SR leukemia, 44.9 µM. In addition, the TGI was 98.9 µM in the experiment with MDA-MB-231 breast, greater than 100 µM in the experiment with NCI-H522 lung, greater than 100 µM in the experiment with HCT-116 colon and 45.4 µM in the experiment with SK-MEL-2 melanoma.

As for `CC1OC(OC2C(O)CC(OC3C(O)CC(OC4CCC5(C)C(CCC6C5CC(O)C5(C)C(C7=CC(=O)OC7)CCC65O)C4)OC3C)OC2C)CC(O)C1O` (centres undefined), the GI50 is 0.137 µM in the experiment with NCI-H226 lung; 0.0416 µM in the experiment on CAKI-1 renal; 0.0252 µM with MOLT-4 leukemia; 0.0543 µM in the experiment with PC-3 prostate; 0.0253 µM with HL-60(TB) leukemia; 0.0244 µM in the experiment on SR leukemia. Besides, the GI50 was 0.205 µM in the experiment with MDA-MB-231 breast, 0.0225 µM in the experiment on NCI-H522 lung, 0.0331 µM in the experiment on HCT-116 colon and 0.128 µM in the experiment on SK-MEL-2 melanoma. The TGI was 0.266 µM in the experiment with NCI-H226 lung; 0.204 µM with CAKI-1 renal; 0.0619 µM in the experiment with MOLT-4 leukemia; 0.538 µM in the experiment with PC-3 prostate; 0.0564 µM in the experiment on HL-60(TB) leukemia; 0.0897 µM with SR leukemia. Further, the TGI in the experiment on MDA-MB-231 breast came out at 0.616 µM; in the experiment with NCI-H522 lung it was 0.0639 µM; in the experiment on HCT-116 colon it was 0.115 µM; in the experiment with SK-MEL-2 melanoma it was 0.346 µM.
